{
  "source": "patent US8663658B2",
  "about": "“Revaprazan-containing solid dispersion and process for the preparation thereof” (Yuhan Corporation, priority 2006, dated 2014)",
  "key": {"[1]": {"details": "background art; cited from earlier work"}, "[2]": {"assay": "Adhesiveness and agglutination test (Carr's index from bulk and tapped density)", "type": "physicochemical", "experimental": "The bulk density and tapped density of revaprazan powder and the surface-modified solid dispersions prepared according to Examples 3 and 6 were measured and their Carr's indexes were obtained in order to measure flowability thereof. About 3 g of a solid dispersion was carefully added to a plastic measuring cylinder and the volume thereof was measured to obtain the bulk density. And then, this was subjected to tapping 3,000 times using a tapped density meter to measure the volume and the tapped density was obtained. From the obtained bulk density and tapped density, Carr's index was calculated in order to evaluate flowability."}, "[3]": {"assay": "Solubility of revaprazan-containing solid dispersion in purified water", "type": "physicochemical", "details": "thermodynamic from solid, 25° C., solid dispersion containing 1 g revaprazan in 50 ml, stirred up to 6 hours, UV 270 nm", "experimental": "Solubility of a revaprazan-containing solid dispersion was measured in purified water. A solid dispersion containing 1 g of revaprazan was added to a beaker containing 50 ml of purified water, which was then strongly stirred using a magnetic stirrer at 25° C. in a water bath for 6 hours. After 1, 2, and 6 hours, each sample was collected and filtered using a 0.45 μm filter. The filtrate was diluted with methanol having such an amount that absorbance of the filtrate is in the range from 0.2 to 1.0. Then, absorbance of the diluted filtrate was measured at 270 nm using a UV spectrophotometer (Agilent 8453, Agilent technologies, USA). From the obtained absorbance value, concentrations of revaprazan were obtained using a standard curve.\nAbout 20 mg of revaprazan standard was dissolved in methanol until the total volume of the solution reached 10 ml. 1 ml of the resultant solution was added to a 100 ml flask and then purified water was added thereto to obtain a standard stock solution. The standard stock solution was diluted with purified water to obtain 2 μg/ml, 5 μg/ml, 8 μg/ml, and 10 μg/ml of standard solution. Each absorbance of the standard solutions was measured at an absorption maximum wavelength of 270 nm to obtain a standard curve. The standard curve was moderately linear passing through almost (0.0) (coefficient of correlation r^2>0.98)."}},
  "note": "Where two headings read alike, the source gives them in different places.",
  "data": [
    {"smiles": "Cc1nc(Nc2ccc(F)cc2)nc(N2CCc3ccccc3C2C)c1C", "note": "(stereo not shown) [Revaprazan powder, 5,6-dimethyl-2-(4-fluorophenylamino)-4-(1-methyl-1,2,3,4-tetrahydroisoquinolin-2-yl)pyrimidine]", "values": [
      {"measurement": "water-solubility", "setting": "[1]", "result": "less than 0.2 mg/mL"},
      {"measurement": "Carr's index", "setting": "[2]", "result": "≥ 40", "unit": "%"},
      {"measurement": "Carr's index", "setting": "[2]; from bulk density and tapped density (3,000 taps), flowability", "result": 41.2},
      {"measurement": "solubility", "setting": "[3]", "result": 173, "unit": "µg/mL"}
    ]}
  ]
}
